In patent publication US8779158B2, “Trisubstituted pyrazoles as acetylcholine receptor modulators” (Janssen Pharmaceutica NV, priority 2008, dated 2014):

Target: T1, hα7-wt nAChR (Homo sapiens, UniProt P36544)
T1 construct: expressed in transfected cells
Test: Ca2+ flux imaging (FDSS) (Protocol B), potentiation of the choline response
Format: cell-based
Conditions: Ca2+ assay as described in D.1; for EC50: "<5" = activity did not reach a top plateau at maximal concentration; for Emax / Emax at 30 µM: read-out: % Efficacy
Procedure: Ca^2+ Flux Imaging (FDSS) (Protocol B)
• Hanks buffered saline solution (HBSS, Invitrogen, Belgium), supplemented with 10 mM HEPES (Invitrogen, Belgium), CaCl2 to a final concentration of 5 mM, 0.1% Bovine serum albumin (Sigma-Aldrich NV, Belgium). b) Calcium-Sensitive Dye—Fluo-4AM • Fluo-4AM (Molecular Probes, USA) was dissolved in DMSO containing 10% Pluronic acid (Molecular Probes, USA) to give a stock solution which was diluted in assay buffer supplemented with 5 mM probenicid (Sigma, Aldrich NV, Belgium) to give a final concentration of 2 μM. c) 384-Well Plates • Black 384 well plate black/clear plates, PDL pre-coated (Corning, Incorporated, USA) d) Calcium Flux Measurement • A Functional drug screening system (FDSS, Hamamatsu) was used to measure intracellular free-calcium flux signals. Method
Monolayers of hα7-wt nAChR-expressing cells were grown in multi-well plates, in particular black-sided, transparent bottomed 384 well plates coated with poly-D-lysine for 24 hours prior to loading with a fluorescent calcium indicator, in a particular embodiment loading with fluo-4AM for up to 120 minutes.
PAM activity was detected in real time by applying the compounds to be tested to the loaded cells along with a α7 nicotinic receptor agonist during constant monitoring of cellular fluorescence in a FDSS. Compounds giving peak fluorescent responses greater than the response due to agonist alone, were considered to be α7 nAChR PAM's. In a particular embodiment, the α7 nicotinic receptor agonist was choline, a more particular embodiment choline applied at a sub-maximal concentration of 100 μM. In a further setting of the present invention the compounds to be tested were applied prior to the α7 nicotinic receptor agonist, in a particular embodiment up to 10 minutes prior to the agonist.
A control response to choline was calculated on each plate from the difference in peak in fluorescence in wells receiving either choline or assay buffer alone. Compounds of the present invention were tested at a concentration range from 0.01 μM to 30 μM. Compounds were considered to have an interesting activity when they potentiated the choline signal at least with 200% when tested at a concentration of 30 μM (the efficacy of 100 μM choline was defined as 100% in the absence of a PAM). An EC50 (or pEC50) was determined as a concentration relating to half the maximal effect, when a clear sigmoidal curve with top plateau was obtained.

T1 sequence (P36544 23-502): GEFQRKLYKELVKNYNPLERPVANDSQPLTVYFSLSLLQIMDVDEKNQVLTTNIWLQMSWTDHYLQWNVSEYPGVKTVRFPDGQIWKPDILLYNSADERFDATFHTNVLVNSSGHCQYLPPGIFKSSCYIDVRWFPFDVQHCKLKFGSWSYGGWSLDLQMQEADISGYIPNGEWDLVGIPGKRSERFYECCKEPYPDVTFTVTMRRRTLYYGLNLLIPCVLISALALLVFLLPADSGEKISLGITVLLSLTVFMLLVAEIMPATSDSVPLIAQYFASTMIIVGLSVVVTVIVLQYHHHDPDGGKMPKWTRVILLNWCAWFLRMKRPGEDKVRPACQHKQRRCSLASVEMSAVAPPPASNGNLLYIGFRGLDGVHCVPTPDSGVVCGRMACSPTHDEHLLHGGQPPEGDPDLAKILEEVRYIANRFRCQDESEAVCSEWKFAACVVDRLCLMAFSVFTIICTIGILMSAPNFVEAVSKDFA

Structure (SMILES) | EC50 [nM] | Emax [%] | Emax at 30 µM [%]
Cc1cc(-c2cc(Nc3ccc(F)c(C(F)(F)F)c3)nn2CC(=O)NC2CCC2)cc(C)n1 [compound 174] | 219 | 651 | –
Cc1ccnc(-c2cc(Nc3ccc(F)c(F)c3)nn2C[C@H](C)O)c1 [compound 24] | 2140 | 300 | –
CNC(=O)Cn1nc(Nc2cc(F)cc(Cl)c2)cc1-c1ccnc(C)c1 [compound 33] | 1780 | – | –
CNC(=O)Cn1nc(Nc2ccc(F)c(C(F)(F)F)c2)cc1-c1ccnc(C)c1 [compound 34] | 3390 | – | –
CC[C@H](O)Cn1nc(Nc2cc(OC)cc(C(F)(F)F)c2)cc1-c1cc(C)nc(C)c1 [compound 101] | 151 | – | –
CNC(=O)Cn1nc(Nc2ccc(F)c(C(F)(F)F)c2)cc1-c1cc(C)nc(C)c1 [compound 114] | 1150 | – | –
COc1cc(Nc2cc(-c3ccnc(C)c3C)n(CCC(=O)N(C)C)n2)cc(C(F)(F)F)c1 [compound 52] | 912 | – | –
CCNC(=O)Cn1nc(Nc2cccc(OC(F)(F)F)c2)cc1-c1cc(C)nc(C)c1 [compound 139] | 646 | 710 | –
CNC(=O)Cn1nc(Nc2cccc(OC(F)(F)F)c2)cc1-c1cccnc1 [compound 14] | 5130 | – | –
CCNC(=O)Cn1nc(Nc2cc(F)c(F)c(F)c2)cc1-c1cc(C)nc(C)c1 [compound 167] | 263 | 762 | –
Cc1cc(-c2cc(Nc3cc(F)cc(Cl)c3)nn2CCC(=O)N(C)C)ccn1 [compound 41] | 389 | – | –
CNC(=O)Cn1nc(Nc2cccc(Cl)c2F)cc1-c1cc(C)nc(C)c1 [compound 141] | 562 | 519 | –
CCNC(=O)Cn1nc(Nc2ccc(F)c(F)c2F)cc1-c1cc(C)nc(C)c1 [compound 148] | 468 | – | –
CC[C@H](O)Cn1nc(Nc2cc(F)cc(F)c2)cc1-c1ccnc(Cl)c1 [compound 47] | 437 | – | –
Cc1cc(-c2cc(Nc3cccc(OC(F)(F)F)c3)nn2CC(=O)NC2CCC2)cc(C)n1 [compound 180] | 372 | 768 | –
CN(C)C(=O)CCn1nc(Nc2ccc3c(c2)OC(F)(F)O3)cc1-c1ccncc1 [compound 88] | 309 | – | –
COc1cccc(-c2cc(Nc3ccc(F)c(F)c3)nn2CCC(=O)N(C)C)c1Cl [compound 11] | 145 | – | –
Cc1cc(-c2cc(Nc3cccc(Cl)c3F)nn2CC(=O)NC2CC2)cc(C)n1 [compound 169] | 302 | 577 | –
CC[C@H](O)Cn1nc(Nc2cccc(C(F)(F)F)c2)cc1-c1ccnc(COC)c1 [compound 113] | 1320 | – | –
CNC(=O)Cn1nc(Nc2cc(OC)cc(C(F)(F)F)c2)cc1-c1ccnc(C)c1C [compound 50] | 6170 | 496 | –
CC[C@H](O)Cn1nc(Nc2cc(OC)cc(C(F)(F)F)c2)cc1-c1ccnc(COC)c1 [compound 99] | 955 | – | –
CNC(=O)Cn1nc(Nc2cc(F)c(F)c(F)c2)cc1-c1ccnc(C)c1 [compound 109] | 1780 | 559 | –
CN(C)C(=O)CCn1nc(Nc2ccc(F)c(F)c2)cc1-c1ccc2c(c1)OCCO2 [compound 84] | 51.3 | – | –
CCNc1cc(-c2cc(Nc3ccc(F)c(F)c3)nn2C[C@H](C)O)cc(C)n1 [compound 66] | > 10000 | – | –
CCNC(=O)Cn1nc(Nc2cc(F)cc(C(F)(F)F)c2)cc1-c1ccncc1C [compound 31] | 2690 | – | –
CCNc1cc(-c2cc(Nc3cc(OC)cc(C(F)(F)F)c3)nn2C[C@H](C)O)ccn1 [compound 63] | 3980 | 700 | –
CCNc1cc(-c2cc(Nc3ccc(F)c(F)c3F)nn2C[C@H](C)O)ccn1 [compound 133] | 776 | 409 | –

Structure (SMILES) | EC50 [nM] | Emax [%] | Emax at 30 µM [%]
COc1cc(Nc2cc(-c3cc(C)nc(C)c3)n(CC(=O)NC3CC3)n2)cc(C(F)(F)F)c1 [compound 138] | 617 | 686 | –
CNC(=O)Cn1nc(Nc2ccc(F)c(F)c2F)cc1-c1cc(C)nc(C)c1 [compound 120] | 1150 | 969 | –
CCNC(=O)Cn1nc(Nc2ccc(F)c(F)c2)cc1-c1cccnc1 [compound 16] | > 10000 | – | –
CCNc1cc(-c2cc(Nc3cc(F)cc(C(F)(F)F)c3)nn2C[C@H](C)O)ccn1 [compound 64] | 1410 | 500 | –
CCNc1cc(-c2cc(Nc3ccc(F)c(C(F)(F)F)c3)nn2C[C@H](C)O)cc(C)n1 [compound 67] | 1380 | 800 | –
CNC(=O)Cn1nc(Nc2ccc3c(c2)OC(F)(F)O3)cc1-c1ccncc1C [compound 89] | > 10000 | – | –
CCNC(=O)Cn1nc(Nc2ccc(F)c(F)c2)cc1-c1ccncc1 [compound 20] | > 10000 | – | –
Cc1cc(-c2cc(Nc3ccc(F)c(F)c3)nn2CC(=O)NC2CC2)cc(C)n1 [compound 160] | 525 | 927 | –
CCNC(=O)Cn1nc(Nc2cc(F)cc(Cl)c2)cc1-c1ccnc(C)c1 [compound 39] | 776 | – | –
CNC(=O)Cn1nc(Nc2cc(F)cc(C(F)(F)F)c2)cc1-c1ccncc1C [compound 30] | > 10000 | – | –
CC[C@H](O)Cn1nc(Nc2cc(OC)cc(C(F)(F)F)c2)cc1-c1ccnc(C)c1Cl [compound 115] | 1260 | 516 | –
CNC(=O)Cn1nc(Nc2ccc(F)c(C(F)(F)F)c2)cc1-c1ccc2c(c1)OCCO2 [compound 75] | 219 | – | –
CNC(=O)Cn1nc(Nc2cccc(C(F)(F)F)c2)cc1-c1cccnc1 [compound 13] | > 10000 | – | 967
Cc1cc(-c2cc(Nc3cccc(C(F)(F)F)c3)nn2CC(=O)NC2CCC2)cc(C)n1 [compound 144] | 437 | 444 | –
CNC(=O)Cn1nc(Nc2cc(OC)cc(C(F)(F)F)c2)cc1-c1cc(C)nc(C)c1 [compound 105] | 3160 | – | –
CNC(=O)Cn1nc(Nc2cc(F)c(F)c(F)c2)cc1-c1cccnc1 [compound 15] | > 10000 | – | 832
CN(C)C(=O)CCn1nc(Nc2cccc(F)c2)cc1-c1ccc2c(c1)OCCO2 [compound 82] | 135 | – | –
Cc1cc(-c2cc(Nc3ccc(F)c(C(F)(F)F)c3)nn2CC(=O)NC2CC2)cc(C)n1 [compound 159] | 457 | 842 | –
CNC(=O)Cn1nc(Nc2cc(F)c(F)c(F)c2)cc1-c1cc(C)nc(C)c1 [compound 127] | 1020 | 616 | –
CCNC(=O)Cn1nc(Nc2cccc(C(F)(F)F)c2)cc1-c1cccnc1 [compound 18] | > 10000 | – | 592
Cc1cc(-c2cc(Nc3cc(F)cc(Cl)c3)nn2C[C@H](C)O)ccn1 [compound 42] | 1120 | 200 | –
Cc1cc(-c2cc(Nc3ccc(F)c(C(F)(F)F)c3)nn2CC[C@H](C)O)ccn1 [compound 49] | 1820 | 500 | –
Cc1cc(-c2cc(Nc3cc(F)c(F)c(F)c3)nn2C[C@H](C)O)ccn1 [compound 44] | 1230 | 400 | –
Cc1cc(-c2cc(Nc3cccc(C(F)(F)F)c3)nn2CC(=O)NC2CC2)cc(C)n1 [compound 150] | 525 | 568 | –
CCNC(=O)Cn1nc(Nc2cccc(OC(F)(F)F)c2)cc1-c1ccnc(C)c1 [compound 37] | 1000 | – | –
CNC(=O)Cn1nc(Nc2cccc(OC(F)(F)F)c2)cc1-c1cc(C)nc(C)c1 [compound 129] | 933 | 726 | –
Cc1ccnc(-c2cc(Nc3cc(F)cc(F)c3)nn2CCC(=O)N(C)C)c1 [compound 26] | 2750 | 800 | –
